Results taken from ChEMBL document CHEMBL3885881, “DrugMatrix”.

Species: Rattus norvegicus
Test: DrugMatrix - Regimen: Daily Repeat
Type: toxicity, organism-based, Sprague-Dawley
Design: regimen Daily Repeat, gender Male, age 6-8 weeks
Details: in vivo, po, […], route oral GAVAGE; for ABSOLUTE BASOPHIL / ABSOLUTE EOSINOPHIL / ABSOLUTE LYMPHOCYTE / ABSOLUTE MONOCYTE / ABSOLUTE SEGMENTED NEUTROPHIL / BASOPHIL / EOSINOPHIL / ERYTHROCYTE COUNT / HEMATOCRIT / HEMOGLOBIN / LEUKOCYTE COUNT / LYMPHOCYTE / MEAN CORPUSCULAR HEMOGLOBIN / MEAN CORPUSCULAR HEMOGLOBIN CONCENTRATION / MEAN CORPUSCULAR VOLUME / MONOCYTE / NEUTROPHIL / NUCLEATED RED BLOOD CELLS / PLATELET COUNT: tissue Blood; for ALANINE AMINOTRANSFERASE / ALBUMIN / ALKALINE PHOSPHATASE / ASPARTATE AMINOTRANSFERASE / BLOOD UREA NITROGEN / CARBON DIOXIDE / CHLORIDE / CHOLESTEROL / CREATINE PHOSPHOKINASE / CREATININE / GLUCOSE / LACTATE DEHYDROGENASE / LIPASE / PHOSPHORUS / POTASSIUM / SODIUM / TOTAL BILIRUBIN / TOTAL PROTEIN / URIC ACID: tissue Plasma
[1] = 30 mg/kg, dose level Low, time 7 day
[2] = 60 mg/kg, 72 h, dose level High, time 3 day
[3] = 60 mg/kg, dose level High, time 7 day

Question: With `S=C=Nc1cccc2ccccc12` [1-NAPHTHYLISOTHIOCYANATE] as the compound, how does the “ABSOLUTE BASOPHIL” value [1] read?
Answer: 0 CELLS/uL

Question: What about the “ABSOLUTE EOSINOPHIL” value [1] of the same compound?
Answer: 0 CELLS/uL

Question: What about the “ABSOLUTE LYMPHOCYTE” value [1] of the same compound?
Answer: 18648 CELLS/uL

Question: And the “ABSOLUTE MONOCYTE” value [1]?
Answer: 658.33 CELLS/uL

Question: What about the “ABSOLUTE SEGMENTED NEUTROPHIL” value [1] of the same compound?
Answer: 6027 CELLS/uL

Question: What about the BASOPHIL [1] of the same compound?
Answer: 0%

Question: And the EOSINOPHIL [1]?
Answer: 0%

Question: And the “ERYTHROCYTE COUNT” value [1]?
Answer: 5.54 x10E6/uL

Question: And the HEMATOCRIT [1]?
Answer: 31.6%

Question: What about the HEMOGLOBIN [1] of the same compound?
Answer: 13.02 G/DL

Question: And the “LEUKOCYTE COUNT” value [1]?
Answer: 25.33 x10E3/uL

Question: And the LYMPHOCYTE [1]?
Answer: 74.17%

Question: And the “MEAN CORPUSCULAR HEMOGLOBIN” value [1]?
Answer: 23.55 pg

Question: What about the “MEAN CORPUSCULAR HEMOGLOBIN CONCENTRATION” value [1] of the same compound?
Answer: 41.2 G/DL

Question: What about the “MEAN CORPUSCULAR VOLUME” value [1] of the same compound?
Answer: 57.07 fL

Question: And the MONOCYTE [1]?
Answer: 2.33%

Question: And the NEUTROPHIL [1]?
Answer: 23.5%

Question: What about the “NUCLEATED RED BLOOD CELLS” value [1] of the same compound?
Answer: 0 /100WBC

Question: And the “PLATELET COUNT” value [1]?
Answer: 1468.17 x10E3/uL

Question: And the “ALANINE AMINOTRANSFERASE” value [1]?
Answer: 195.83 u/L

Question: What about the ALBUMIN [1] of the same compound?
Answer: 3.78 G/DL

Question: What about the “ALKALINE PHOSPHATASE” value [1] of the same compound?
Answer: 515.67 u/L

Question: What about the “ASPARTATE AMINOTRANSFERASE” value [1] of the same compound?
Answer: 302 u/L

Question: What about the “BLOOD UREA NITROGEN” value [1] of the same compound?
Answer: 11.83 mg/dL

Question: What about the “CARBON DIOXIDE” value [1] of the same compound?
Answer: 27.67 mmol/L

Question: And the CHLORIDE [1]?
Answer: 96.67 MEQ/L

Question: And the CHOLESTEROL [1]?
Answer: 137 mg/dL

Question: And the “CREATINE PHOSPHOKINASE” value [1]?
Answer: 291.83 u/L

Question: What about the CREATININE [1] of the same compound?
Answer: 0.18 mg/dL

Question: What about the GLUCOSE [1] of the same compound?
Answer: 98.33 mg/dL

Question: What about the “LACTATE DEHYDROGENASE” value [1] of the same compound?
Answer: 164.67 u/L

Question: What about the LIPASE [1] of the same compound?
Answer: 11 u/L

Question: What about the PHOSPHORUS [1] of the same compound?
Answer: 8.68 mg/dL

Question: And the POTASSIUM [1]?
Answer: 6.99 MEQ/L

Question: What about the SODIUM [1] of the same compound?
Answer: 139.38 MEQ/L

Question: And the “TOTAL BILIRUBIN” value [1]?
Answer: 3.15 mg/dL

Question: What about the “TOTAL PROTEIN” value [1] of the same compound?
Answer: 6.52 G/DL

Question: What about the “URIC ACID” value [1] of the same compound?
Answer: 0.93 mg/dL

Question: And the “ABSOLUTE BASOPHIL” value [2]?
Answer: 0 CELLS/uL

Question: What about the “ABSOLUTE EOSINOPHIL” value [2] of the same compound?
Answer: 24.67 CELLS/uL

Question: What about the “ABSOLUTE LYMPHOCYTE” value [2] of the same compound?
Answer: 8862.67 CELLS/uL

Question: What about the “ABSOLUTE MONOCYTE” value [2] of the same compound?
Answer: 317.33 CELLS/uL

Question: And the “ABSOLUTE SEGMENTED NEUTROPHIL” value [2]?
Answer: 2312 CELLS/uL

Question: What about the BASOPHIL [2] of the same compound?
Answer: 0%

Question: And the EOSINOPHIL [2]?
Answer: 0.33%

Question: What about the “ERYTHROCYTE COUNT” value [2] of the same compound?
Answer: 6.41 x10E6/uL

Question: What about the HEMATOCRIT [2] of the same compound?
Answer: 39.08%

Question: What about the HEMOGLOBIN [2] of the same compound?
Answer: 14.75 G/DL

Question: And the “LEUKOCYTE COUNT” value [2]?
Answer: 11.52 x10E3/uL

Question: What about the LYMPHOCYTE [2] of the same compound?
Answer: 77%

Question: And the “MEAN CORPUSCULAR HEMOGLOBIN” value [2]?
Answer: 23 pg

Question: What about the “MEAN CORPUSCULAR HEMOGLOBIN CONCENTRATION” value [2] of the same compound?
Answer: 37.77 G/DL

Question: What about the “MEAN CORPUSCULAR VOLUME” value [2] of the same compound?
Answer: 60.88 fL

Question: And the MONOCYTE [2]?
Answer: 2.5%

Question: And the NEUTROPHIL [2]?
Answer: 20.17%

Question: What about the “NUCLEATED RED BLOOD CELLS” value [2] of the same compound?
Answer: 0.17 /100WBC

Question: What about the “PLATELET COUNT” value [2] of the same compound?
Answer: 1204.67 x10E3/uL

Question: What about the “ALANINE AMINOTRANSFERASE” value [2] of the same compound?
Answer: 183.5 u/L

Question: What about the ALBUMIN [2] of the same compound?
Answer: 3.77 G/DL

Question: And the “ALKALINE PHOSPHATASE” value [2]?
Answer: 566.83 u/L

Question: What about the “ASPARTATE AMINOTRANSFERASE” value [2] of the same compound?
Answer: 458.5 u/L

Question: What about the “BLOOD UREA NITROGEN” value [2] of the same compound?
Answer: 11.67 mg/dL

Question: What about the “CARBON DIOXIDE” value [2] of the same compound?
Answer: 28.67 mmol/L

Question: What about the CHLORIDE [2] of the same compound?
Answer: 94.67 MEQ/L

Question: And the CHOLESTEROL [2]?
Answer: 312 mg/dL

Question: And the “CREATINE PHOSPHOKINASE” value [2]?
Answer: 420.5 u/L

Question: What about the CREATININE [2] of the same compound?
Answer: 0.28 mg/dL

Question: And the GLUCOSE [2]?
Answer: 125.17 mg/dL

Question: And the “LACTATE DEHYDROGENASE” value [2]?
Answer: 229.33 u/L

Question: What about the LIPASE [2] of the same compound?
Answer: 12.5 u/L

Question: And the PHOSPHORUS [2]?
Answer: 8.75 mg/dL

Question: What about the POTASSIUM [2] of the same compound?
Answer: 6.43 MEQ/L

Question: What about the SODIUM [2] of the same compound?
Answer: 140.67 MEQ/L

Question: What about the “TOTAL BILIRUBIN” value [2] of the same compound?
Answer: 3.47 mg/dL

Question: What about the “TOTAL PROTEIN” value [2] of the same compound?
Answer: 6.93 G/DL

Question: And the “URIC ACID” value [2]?
Answer: 0.85 mg/dL

Question: And the “ABSOLUTE BASOPHIL” value [3]?
Answer: 0 CELLS/uL

Question: What about the “ABSOLUTE EOSINOPHIL” value [3] of the same compound?
Answer: 0 CELLS/uL

Question: And the “ABSOLUTE LYMPHOCYTE” value [3]?
Answer: 17693.83 CELLS/uL

Question: And the “ABSOLUTE MONOCYTE” value [3]?
Answer: 897.83 CELLS/uL

Question: What about the “ABSOLUTE SEGMENTED NEUTROPHIL” value [3] of the same compound?
Answer: 12275 CELLS/uL

Question: And the BASOPHIL [3]?
Answer: 0%

Question: What about the EOSINOPHIL [3] of the same compound?
Answer: 0%

Question: And the “ERYTHROCYTE COUNT” value [3]?
Answer: 5.43 x10E6/uL

Question: And the HEMATOCRIT [3]?
Answer: 31.22%

Question: What about the HEMOGLOBIN [3] of the same compound?
Answer: 12.83 G/DL

Question: What about the “LEUKOCYTE COUNT” value [3] of the same compound?
Answer: 30.87 x10E3/uL

Question: And the LYMPHOCYTE [3]?
Answer: 60.83%

Question: What about the “MEAN CORPUSCULAR HEMOGLOBIN” value [3] of the same compound?
Answer: 23.63 pg

Question: And the “MEAN CORPUSCULAR HEMOGLOBIN CONCENTRATION” value [3]?
Answer: 41.02 G/DL

Question: And the “MEAN CORPUSCULAR VOLUME” value [3]?
Answer: 57.68 fL

Question: And the MONOCYTE [3]?
Answer: 2.67%

Question: And the NEUTROPHIL [3]?
Answer: 36.5%

Question: What about the “NUCLEATED RED BLOOD CELLS” value [3] of the same compound?
Answer: 0 /100WBC

Question: What about the “PLATELET COUNT” value [3] of the same compound?
Answer: 1574.83 x10E3/uL

Question: And the “ALANINE AMINOTRANSFERASE” value [3]?
Answer: 179.83 u/L

Question: And the ALBUMIN [3]?
Answer: 3.78 G/DL

Question: What about the “ALKALINE PHOSPHATASE” value [3] of the same compound?
Answer: 516 u/L

Question: What about the “ASPARTATE AMINOTRANSFERASE” value [3] of the same compound?
Answer: 418 u/L

Question: And the “BLOOD UREA NITROGEN” value [3]?
Answer: 12.33 mg/dL

Question: What about the “CARBON DIOXIDE” value [3] of the same compound?
Answer: 26.67 mmol/L

Question: What about the CHLORIDE [3] of the same compound?
Answer: 94 MEQ/L

Question: What about the CHOLESTEROL [3] of the same compound?
Answer: 384.5 mg/dL

Question: And the “CREATINE PHOSPHOKINASE” value [3]?
Answer: 339.67 u/L

Question: What about the CREATININE [3] of the same compound?
Answer: 0.1 mg/dL

Question: And the GLUCOSE [3]?
Answer: 96.33 mg/dL

Question: And the “LACTATE DEHYDROGENASE” value [3]?
Answer: 286.67 u/L

Question: What about the LIPASE [3] of the same compound?
Answer: 12.17 u/L

Question: And the PHOSPHORUS [3]?
Answer: 8.75 mg/dL

Question: And the POTASSIUM [3]?
Answer: 6.62 MEQ/L

Question: And the SODIUM [3]?
Answer: 137.88 MEQ/L

Question: And the “TOTAL BILIRUBIN” value [3]?
Answer: 8.2 mg/dL

Question: What about the “TOTAL PROTEIN” value [3] of the same compound?
Answer: 6.48 G/DL

Question: And the “URIC ACID” value [3]?
Answer: 0.87 mg/dL
